Tests used:
[1] = Metal ion sensing: fluorescence titration and selectivity experiments; format: physicochemical; conditions: for fluorescence at 580 nm upon addition of Sn^2+ / selectivity: metal ions that turn on fluorescence / fluorescence of probe solution without metal ion: 20 μM in ethanol-water (1:1, v/v, pH 7.04); for fluorescence at 580 nm upon addition of Sn^2+: Sn^2+ 0-20 eq; for fluorescence at 580 nm upon addition of Sn^2+ / selectivity: metal ions that turn on fluorescence / fluorescence enhancement with other transition and heavy metal ions: excitation 560 nm; for fluorescence of probe solution without metal ion: no Sn^2+; for fluorescence enhancement with other transition and heavy metal ions: K^+, Ag^+, Ca^2+, Mg^2+, Zn^2+, Pb^2+, Ni^2+, Mn^2+, Co^2+, Cd^2+, Hg^2+, 20 μM probe
Method: The procedure for metal ion sensing is described. Solutions of the metal ions (10.0 mM) are prepared in deionized water. […] Sn^2+ stock solution is added into the quartz optical cell gradually by micro-pipette. Spectral data is recorded at 5 min after addition. […] For fluorescence measurements, excitation is provided at 560 nm, while emission is collected from 565 to 700 nm. Metal ion response is described. Fluorescent ‘turn on’ probe is conducive for detection target. […] High-level selectivity is of paramount importance for an excellent chemosensor. […] Metal ion response of R1 and R2 are suited for detection of Sn^2+ in living Streptococcus mutans cells.

[2] = pH titration of fluorescence; format: physicochemical; conditions: 10 μM in PBS, emission 580 nm, excitation 560 nm
Method: pH titration of Compounds R1 and R2 is described. Stock solutions of Compounds R1 and R2 are respectively added to sodium phosphate buffers of various pH to a final concentration of 10 μM. The fluorescence emission spectra are recorded as a function of pH using λex at 560 nm. The titration curves are plotted by fluorescence emission intensities at 580 nm versus pH.
The impact of pH values on fluorescence is described. The pirolactam ring of the rhodamine derivatives will open in a certain pH range and indicates the fluorescence of rhodamine. It is therefore necessary to check the fluorescence properties of Compounds R1 and R2 in solutions with different pH values. Furthermore, in the cell, the acidity of different organelles may vary greatly. For example, the normal pH of lysosomes is 4.5-5.5, which may induce ring opening of R1 or R2. Considering the application of Sn^2+ probe R1 and R2 intracellular or extracellular may be disturbed by the pH, the acid-base titration experiments are carried out by adjusting the pH with an aqueous solution of NaOH and HCl in Phosphate-Buffered Saline (“PBS”) (FIG. 2 a and b). […] It is predicted that R1 will be turned on by lysosomes in cell without Sn^2+ present. FIGS. 2a and 2b show the dependence of fluorescence at 580 nm of comparative Compound R1 and inventive Compound R2 (10 μM) at different pH in PBS solution. Excitation was at 560 nm.

lysosomes of KB cells = assay: Colocalization experiment with LysoTracker Green DND in KB cells; format: cell-based; conditions: 50 μM Sn^2+, 10 μM probe, 1 μM LysoTracker Green DND, 30 min each
Method: Colocalization experiments are described. 50 μM SnF2 in the culture media is added to the cells. The cells are incubated at 37° C. for 30 min, and washed with PBS three times to remove the excess SnF2. After washing with PBS (2 mL×3) to remove the excess SnF2, the cells are treated with 10 μM of Compound R1 or R2 separately for 30 min, and washed with PBS three times to remove the excess probe and bathed in PBS (2 mL) before imaging. Cell imaging is then carried out as the former. After washing with PBS (2 mL×3) to remove the excess probes, the cells were treated with 1.0 μM LysoTracker® Green DND at 37° C. for 30 min. Cell imaging is then carried out as the former.
Firstly, the KB cells are stained with 50 μM Sn^2+ at 37° C. for 30 min, and then separately incubated with 10 μM of Compound R1 and 1 μM LysoTracker® Green DND or Compound R2 and 1 μM LysoTracker® Green DND under the same conditions. […] There is no fluorescence in other intracellular sites. […] This may be a transmission path of Sn. […] Many pharmaceutical agents, including various large and small molecules, must be delivered specifically to particular cell organelles in order to efficiently exert their therapeutic action. Such delivery is still mainly an unresolved problem, but targeting detection is helpful attempt. […]

[3] = system: Streptococcus mutans (ATCC® 700610™); assay: Fluorescence imaging of Sn^2+ in bacteria (confocal); format: cell-based; conditions: for fluorescence change in Streptococcus mutans after incubation with Sn^2+: 10 μM probe 60 min at 37° C., then 50 μM Sn^2+; for fluorescence in Streptococcus mutans without Sn^2+ present: 10 μM probe, 37° C., 60 min, no Sn^2+
Method: Cell culture preparation is described. The KB cell line was provided by of Biochemistry and Cell Biology (China). Cells are grown in MEM (Modified Eagle's Medium) supplemented with 10% FBS (Fetal Bovine serum) and 5% CO2 at 37° C. Cell ([…]) are plated on […] glass coverslips and allowed to adhere for 24 hours. The Streptococcus mutans (ATCC® 700610™) is prepared by inoculating the single colony from the BHI (Brain-Heart Infusion) agar plate into 5 mL BHI broth and incubating at 37° C. for 48 h.
For fluorescence imaging of Sn^2+ in bacteria is described. Freshly diluted Streptococcus mutans (ATCC® 700610™) is sub cultured in the presence of the 10 μM Compound R1 or R2, separately at 37° C. on a shaker bed at 400 rpm for 60 min. Then the bacteria are collected by centrifugation at 8,000 rpm for 2 min and rinsed with Saline (pH=7.0). The process is repeated three times before imaging. After washing with Saline (2 mL×3) to remove the excess probes, the bacteria is cultured in the presence of the 50 μM SnF2 at 37° C. on a shaker bed at 400 rpm for 60 min. Then the bacteria are collected by centrifugation at 8,000 rpm for 2 min and rinsed with Saline (pH=7.0). The process was repeated three times before imaging. The light source is at =543 nm provided excitation and emission are collected in the range=560-660 nm.
Turning to FIGS. 5a and 5b, fluorescence imaging of Sn^2+ in bacteria is described. FIGS. 5a and 5b show simplified illustrations derived based upon CLSM. The illustrations are not drawn to scale but rather enlarged for illustrative purposes. It has been reported that Sn^2+ can inhibit metabolism of Streptococcus mutans. The practical applicability of Compounds R1 and R2 as a Sn^2+ probe in the fluorescence imaging of living Streptococcus mutans (ATCC® 700610™) are investigated. Firstly, the Streptococcus mutans (ATCC® 700610™) are separately stained with 10 μM Compound R1 or R2 at 37° C. for 60 min.
FIGS. 5a and 5b show simplified illustrations derived based upon CLSM images of Streptococcus mutans (ATCC® 700610™). The illustrations are not drawn to scale but rather enlarged for illustrative purposes. (a1-c1) and (a2-c2) Cells are separately incubated with 10 μM comparative Compound R1 and inventive Compound R2 for 30 min, (d1-f1) and (d2-f2) followed incubated with 50 μM SnF2 for 30 min. Emission is collected in red channel at 560-660 nm (b1, e1, b2, e2); a1, d1, a2, d2 are bright field images and c1, f1, c2, f2 are overlay images, respectively (λex=543 nm).

Row | Compound | fluorescence at 580 nm upon addition of Sn^2+ [1] | selectivity: metal ions that turn on fluorescence [1] | fluorescence of probe solution without metal ion [1] | fluorescence enhancement with other transition and heavy metal ions [1] | pH range for inducing fluorescence turning on [2] | colocalization of probe fluorescence with LysoTracker Green DND (lysosomes of KB cells) | fluorescence change in Streptococcus mutans after incubation with Sn^2+ [3] | fluorescence in Streptococcus mutans without Sn^2+ present [3]
1 | CCN(CC)c1ccc2c(c1)Oc1cc(N(CC)CC)ccc1C21c2ccccc2C(=O)N1NC(=O)OC(C)(C)C [Compound R2] | turned on and grown drastically | tuning on just in the presence of Sn^2+ and Cr^3+ | non-fluorescent | minimal enhancement | 2-4.5 pH | overlap with LysoTracker® Green DND very well | significant fluorescence increasing | no fluorescence emission
2 | Spiro[1H-isoindole-1,9′-[9H]xanthen]-3(2H)-one, 2-[2-[bis(2-hydroxyethyl)amino]amino]ethyl]-3′,6′-bis(diethylamino) [Compound R1] | turned on and grown drastically | tuning on just in the presence of Sn^2+ and Cr^3+ | non-fluorescent | minimal enhancement | 2.5-6 pH | overlap with LysoTracker® Green DND very well | significant fluorescence increasing | no fluorescence emission
